Measured values as given in US20260174682A1, “GAMMA-AMINOBUTYRIC ACID DERIVATIVE COMPRISING POLYCYCLIC STRUCTURE, METHOD FOR PREPARING SAME, AND USE THEREOF” (ZHONGSHAN INSTITUTE FOR DRUG DISCOVERY, SIMM, CAS., priority 2022, published 2026).
Where two headings read alike, the source gives them in different places. Marks after values point to notes of the source that are not given here.

Experiments:
[1] = test system: diabetic peripheral neuropathic pain; conditions: cited from earlier work
[2] = test system: mouse maximum electroshock model (MES); assay: Antiepileptic effect in mouse maximum electroshock model (MES); format: in vivo; conditions: MES, ICR mice, gavage, dose 300 mg/kg
Procedure: A negative vehicle control group, a positive drug control group (pregabalin and gabapentin) and a test group of the compounds of the present application were set. Male ICR mice with a body weight of […] were selected. […] After fasted for 12 h, the mice were administered the compounds of the present application or the control drugs according to the body weight, and then subjected to electrical stimulation to induce generalized tonic-clonic seizure behaviors after a certain lime interval (2 h for pregabalin, 1 h for gabapentin, and 3 h for the compounds of the present application). A YLS-9A electrophysiological stimulator (Shanghai Xinruan Information Technology Co., Ltd.) was used in an induction model, and parameters were set as follows: configuration 8, stimulation voltage 160 V, wave number 90. When the electrical stimulation was performed, ears on both sides of the mice were firstly wiped with normal saline and then given the electrical stimulation for 1 lime with ear clip electrodes. Tonic straightening of hind limbs was used as a standard for epilepsy seizures. The animals with the tonic straightening of hind limbs were regarded as not being protected by the drugs, and the animals without the tonic straightening of hind limbs were regarded as being protected by the drugs. Response situations of the animals were observed and recorded, and obtained data were counted to calculate protection rates of the compounds.
Median effective doses (ED50) of the compounds to be tested for animal protection were calculated by a least square method (Graphpad Prism 5) with an administration dose-protection rate curve.

postherpetic neuralgia = conditions: cited from earlier work
[3] = test system: mouse 6-Hz psychomotor seizure model; assay: Antiepileptic effect in mouse 6-Hz psychomotor seizure model; format: in vivo; conditions: 6-Hz model, C57BL/6 mice, gavage, dose 300 mg/kg
Procedure: A negative vehicle control group, a positive drug control group (pregabalin and gabapentin) and a test group of the compounds of the present application were set. Male C57BL/6 mice with a body weight of 20±2 g were selected. […] After fasted for 12 h, the mice were administered the compounds of the present application or the control drugs, and then subjected to 6-Hz electrical stimulation to induce epilepsy seizure behaviors after a certain time interval (2 h for pregabalin, 1 h for gabapentin, 1 h for levetiracetam, and 3 h for the compounds of the present application). In an induction model, when the stimulation was performed with a Model 4100 stimulator (A-M Systems, the United States), rear necks of the mice were immobilized by hands on a feeding cage, a corneal electrode was moisten with normal saline and allowed to gently contact bilateral corneas of the mice, the electrical stimulator was trod by a foot to give the mice the electrical stimulation with a stimulation parameter of 6-Hz, a one-way square wave of 32 mA, a wave width of 0.2 ms and a stimulation duration of 3 sec, and timing was performed with a stopwatch during the stimulation. After the electrical stimulation was completed, the mice with the seizure behaviors lasting for less than 7 sec were regarded as being protected by the drugs, and the mice with the seizure behaviors lasting for more than 7 sec were regarded as being not protected from the epilepsy by the drugs. Response situations of the animals were observed and recorded, and obtained data were counted to calculate protection rates of the compounds.
Statistical method: The protection rates of different administration groups were separately compared with that of the vehicle control group to carry out a Fisher's exact test.

[4] = test system: mouse model with subcutaneous injection of pentylenetetrazole (sc-PTZ); assay: Antiepileptic effect in mouse model with subcutaneous injection of pentylenetetrazole (sc-PTZ); format: in vivo
Procedure: A negative vehicle control group, a positive drug control group (pregabalin and gabapentin) and a test group of the compounds of the present application were set. Male ICR mice with a body weight of 22±2 g were selected. […] After fasted for 12 h, the mice were administered the compounds of the present application or the control drugs, and then subcutaneously injected with pentylenetetrazole (PTZ) to induce epilepsy seizure behaviors after a certain time interval (2 h for pregabalin, 1 h for gabapentin, and 3 h for the compounds of the present application). In an induction model, pentylenetetrazole (PTZ) was dissolved in normal saline and administered to the mice through the way of subcutaneous injection (10 mL/kg, administration dose 100 mg/kg). After the injection of PTZ, behavioral observations on the mice were conducted for 1 h, and the latent periods and numbers of the mice with convulsive seizures, clonic seizures, tonic seizures and death after the injection of PTZ were recorded.
Statistical method: Protection rates and mortality of different administration groups were separately compared with those of the vehicle control group to carry out a Fisher's exact test. The seizure time and the latent periods were analyzed by one-way ANOVA.

[5] = sc-PTZ 100 mg/kg, ICR mice, intraperitoneal 30 mg/kg (own compounds calculated by free base), 1 h observation

Row | SMILES | clinical effective rate ([1]; 60 mg/day) [%] | clinical effective rate ([1]; 120 mg/day) [%] | Number of animals with tonic straightening of hind limbs/total number of detected animals [2] | Protection rate (%) [2] [%] | clinical effective rate (postherpetic neuralgia; daily dose up to 1,800 mg/day) [%] | clinical effective rate (postherpetic neuralgia; daily dose up to 2,400 mg/day) [%] | clinical effective rate (postherpetic neuralgia; daily dose up to 3,600 mg/day) [%] | Number of animals with clonic seizures/total number [3] | Protection rate (%) [3] | Clonic seizure incidence [4, 5] | Convulsive seizure incidence [4, 5] | Generalized clonic seizure incidence [4, 5] | Mortality [4, 5] | Tonic seizure incidence [4, 5] | improvement of the convulsive seizure incidence and the mortality ([4]; sc-PTZ mice, 30 mg/kg) | latent periods of generalized clonic seizures, tonic seizures and death ([4]; sc-PTZ mice, 30 mg/kg (calculated by free base), FIG. 6)
1 | CNCC[C@H](Oc1cccc2ccccc12)c1cccs1 [duloxetine] | 49 | 52 | – | – | – | – | – | – | – | – | – | – | – | – | – | –
2 | NCC1(CC(=O)O)CCCCC1 [Gabapentin] | – | – | 2/8 | 75.0 | 32 | 34 | 43 | 2/4 | 50.0 * % | 10/10 | 10/10 | 10/10 | 7/10 | 6/10 | does not significantly improve | not effective
